Experimental data from ChEMBL document CHEMBL3608278 (J Med Chem, 2015).

Tests used:
[1] = biological target: T1, Potassium voltage-gated channel subfamily A member 3 (Homo sapiens, UniProt P22001); set-up: species or system Blood
[2] = biological target: T1, Potassium voltage-gated channel subfamily A member 3; type: cell-based, CHO-K1
[3] = biological target: T1, Potassium voltage-gated channel subfamily A member 3; test: cell-based; set-up: species or system Blood

T1 sequence (P22001 whole entry): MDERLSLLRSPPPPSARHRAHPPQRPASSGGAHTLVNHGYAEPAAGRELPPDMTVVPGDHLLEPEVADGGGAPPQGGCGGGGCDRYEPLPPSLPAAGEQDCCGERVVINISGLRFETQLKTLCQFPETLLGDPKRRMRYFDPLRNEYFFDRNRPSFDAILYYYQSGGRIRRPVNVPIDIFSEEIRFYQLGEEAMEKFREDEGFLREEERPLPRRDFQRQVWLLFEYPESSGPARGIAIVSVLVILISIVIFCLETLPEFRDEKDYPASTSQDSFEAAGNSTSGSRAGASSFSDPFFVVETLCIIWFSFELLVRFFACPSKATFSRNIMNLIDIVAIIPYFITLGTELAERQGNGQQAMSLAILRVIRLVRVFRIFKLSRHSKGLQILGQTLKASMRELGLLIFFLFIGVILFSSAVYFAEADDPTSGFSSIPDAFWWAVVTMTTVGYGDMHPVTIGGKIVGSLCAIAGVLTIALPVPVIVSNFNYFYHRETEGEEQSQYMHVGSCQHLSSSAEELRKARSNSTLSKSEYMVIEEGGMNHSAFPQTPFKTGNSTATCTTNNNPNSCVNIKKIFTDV

SMILES | IC50 [1] [nM] | IC50 [2] [nM] | IC50 [3] [nM]
CC[C@H](C)[C@@H]1NC(=O)[C@@H](NC(=O)[C@H](CO)NC(=O)[C@@H](N)CCCNC(=N)N)CSSC[C@@H](C(=O)O)NC(=O)[C@H]([C@@H](C)O)NC(=O)CNC(=O)[C@@H]2CSSC[C@@H]3NC(=O)[C@H](CCC(N)=O)NC(=O)[C@H](Cc4ccccc4)NC(=O)[C@H](C)NC(=O)[C@H]([C@@H](C)O)NC(=O)[C@H](CSSC[C@H](NC(=O)[C@H](Cc4ccccc4)NC(=O)[C@H](CO)NC(=O)[C@H](CC(C)C)NC(=O)[C@H](CCCNC(=N)N)NC(=O)[C@H](Cc4ccc(O)cc4)NC(=O)[C@H](CCCCN)NC(=O)[C@H](CCSC)NC(=O)[C@H](CO)NC(=O)[C@H](Cc4cnc[nH]4)NC(=O)[C@H](CCCCN)NC3=O)C(=O)N[C@@H](CCCNC(=N)N)C(=O)N[C@@H](CCCCN)C(=O)N[C@@H]([C@@H](C)O)C(=O)N2)NC(=O)[C@H](CCCNC(=N)N)NC(=O)[C@H](Cc2cccc3ccccc23)NC(=O)[C@H](CCCCN)NC(=O)[C@@H]2CCCN2C(=O)[C@H]([C@@H](C)CC)NC(=O)[C@H]([C@@H](C)O)NC(=O)[C@H](CC(=O)O)NC1=O | 0.255 | 0.216 | –
CC[C@H](C)[C@@H]1NC(=O)[C@@H](NC(=O)[C@H](CO)NC(=O)[C@@H](N)CCCNC(=N)N)CSSC[C@@H](C(=O)O)NC(=O)[C@H]([C@@H](C)O)NC(=O)CNC(=O)[C@@H]2CSSC[C@@H]3NC(=O)[C@H](CCC(N)=O)NC(=O)[C@H](Cc4ccccc4)NC(=O)[C@H](C)NC(=O)[C@H]([C@@H](C)O)NC(=O)[C@H](CSSC[C@H](NC(=O)[C@H](Cc4ccccc4)NC(=O)[C@H](CO)NC(=O)[C@H](CC(C)C)NC(=O)[C@H](CCCNC(=N)N)NC(=O)[C@H](Cc4ccc(O)cc4)NC(=O)[C@H](CCCCN)NC(=O)[C@H](CCSC)NC(=O)[C@H](CO)NC(=O)[C@H](Cc4cnc[nH]4)NC(=O)[C@H](CCCCN)NC3=O)C(=O)N[C@@H](CCCNC(=N)N)C(=O)N[C@@H](CCCNC(=N)N)C(=O)N[C@@H]([C@@H](C)O)C(=O)N2)NC(=O)[C@H](CCCNC(=N)N)NC(=O)[C@H](CO)NC(=O)[C@H](CCCCN)NC(=O)[C@@H]2CCCN2C(=O)[C@H]([C@@H](C)CC)NC(=O)[C@H]([C@@H](C)O)NC(=O)[C@H](CC(=O)O)NC1=O | 0.058 | 0.038 | –
CCCC[C@@H]1NC(=O)[C@H](CO)NC(=O)[C@H](Cc2c[nH]cn2)NC(=O)[C@H](CCCCN)NC(=O)[C@@H]2CSSC[C@@H]3NC(=O)[C@H]([C@@H](C)O)NC(=O)[C@H](CCCCN)NC(=O)[C@H](CCCNC(=N)N)NC(=O)[C@H](CSSC[C@H](NC(=O)[C@H](CCCNC(=N)N)NC(=O)[C@H](CO)NC(=O)[C@H](CCCCN)NC(=O)[C@@H]4CCCN4C(=O)[C@H]([C@@H](C)CC)NC(=O)[C@H]([C@@H](C)O)NC(=O)[C@H](CC(=O)O)NC(=O)[C@H]([C@@H](C)CC)NC(=O)[C@@H](NC(=O)[C@H](CO)NC(=O)[C@@H](N)CCCNC(=N)N)CSSC[C@@H](C(N)=O)NC(=O)[C@H]([C@@H](C)O)NC(=O)CNC3=O)C(=O)N[C@@H]([C@@H](C)O)C(=O)N[C@@H](C)C(=O)N[C@@H](Cc3ccccc3)C(=O)N[C@@H](CCCCN)C(=O)N2)NC(=O)[C@H](Cc2ccccc2)NC(=O)[C@H](CO)NC(=O)[C@H](CC(C)C)NC(=O)[C@H](CCCNC(=N)N)NC(=O)[C@H](Cc2ccc(O)cc2)NC(=O)[C@H](CCCCN)NC1=O | 1.1 | – | 0.823
CC[C@H](C)[C@@H]1NC(=O)[C@@H](NC(=O)[C@H](CO)NC(=O)[C@H](C)N)CSSC[C@@H](C(=O)O)NC(=O)[C@H]([C@@H](C)O)NC(=O)CNC(=O)[C@@H]2CSSC[C@@H]3NC(=O)[C@H](CCC(N)=O)NC(=O)[C@H](Cc4ccccc4)NC(=O)[C@H](C)NC(=O)[C@H]([C@@H](C)O)NC(=O)[C@H](CSSC[C@H](NC(=O)[C@H](Cc4ccccc4)NC(=O)[C@H](CO)NC(=O)[C@H](CC(C)C)NC(=O)[C@H](CCCNC(=N)N)NC(=O)[C@H](Cc4ccc(O)cc4)NC(=O)[C@H](CCCCN)NC(=O)[C@H](CCSC)NC(=O)[C@H](CO)NC(=O)[C@H](Cc4cnc[nH]4)NC(=O)[C@H](CCCCN)NC3=O)C(=O)N[C@@H](CCCNC(=N)N)C(=O)N[C@@H](CCCCN)C(=O)N[C@@H]([C@@H](C)O)C(=O)N2)NC(=O)[C@H](CCCNC(=N)N)NC(=O)[C@H](CO)NC(=O)[C@H](CCCCN)NC(=O)[C@@H]2CCCN2C(=O)[C@H]([C@@H](C)CC)NC(=O)[C@H]([C@@H](C)O)NC(=O)[C@H](CC(=O)O)NC1=O | – | 0.166 | 0.061
CC[C@H](C)[C@@H]1NC(=O)[C@@H](NC(=O)[C@H](CO)NC(=O)[C@@H](N)CCCNC(=N)N)CSSC[C@@H](C(=O)O)NC(=O)[C@H]([C@@H](C)O)NC(=O)CNC(=O)[C@@H]2CSSC[C@@H]3NC(=O)[C@H](CCC(N)=O)NC(=O)[C@H](Cc4ccccc4)NC(=O)[C@H](C)NC(=O)[C@H]([C@@H](C)O)NC(=O)[C@H](CSSC[C@H](NC(=O)[C@H](Cc4ccccc4)NC(=O)[C@H](CCCNC(=N)N)NC(=O)[C@H](CC(C)C)NC(=O)[C@H](CCCNC(=N)N)NC(=O)[C@H](Cc4ccc(O)cc4)NC(=O)[C@H](CCCCN)NC(=O)[C@H](CCSC)NC(=O)[C@H](CO)NC(=O)[C@H](Cc4cnc[nH]4)NC(=O)[C@H](CCCCN)NC3=O)C(=O)N[C@@H](CCCNC(=N)N)C(=O)N[C@@H](CCCCN)C(=O)N[C@@H]([C@@H](C)O)C(=O)N2)NC(=O)[C@H](CCCNC(=N)N)NC(=O)[C@H](CO)NC(=O)[C@H](CCCCN)NC(=O)[C@@H]2CCCN2C(=O)[C@H]([C@@H](C)CC)NC(=O)[C@H]([C@@H](C)O)NC(=O)[C@H](CC(=O)O)NC1=O | 0.368 | – | 0.158
CC[C@H](C)[C@@H]1NC(=O)[C@@H](NC(=O)[C@H](CO)NC(=O)[C@@H](N)CCCNC(=N)N)CSSC[C@@H](C(=O)O)NC(=O)[C@H]([C@@H](C)O)NC(=O)CNC(=O)[C@@H]2CSSC[C@@H]3NC(=O)[C@H](CCC(N)=O)NC(=O)[C@H](Cc4ccccc4)NC(=O)[C@H](C)NC(=O)[C@H]([C@@H](C)O)NC(=O)[C@H](CSSC[C@H](NC(=O)[C@H](Cc4ccccc4)NC(=O)[C@H](CO)NC(=O)[C@H](CC(C)C)NC(=O)[C@H](CCCNC(=N)N)NC(=O)[C@H](Cc4ccc(O)cc4)NC(=O)[C@H](CCCCN)NC(=O)[C@H](CCSC)NC(=O)[C@H](CO)NC(=O)[C@H](Cc4cnc[nH]4)NC(=O)[C@H](Cc4cccc5ccccc45)NC3=O)C(=O)N[C@@H](CCCNC(=N)N)C(=O)N[C@@H](CCCCN)C(=O)N[C@@H]([C@@H](C)O)C(=O)N2)NC(=O)[C@H](CCCNC(=N)N)NC(=O)[C@H](CO)NC(=O)[C@H](CCCCN)NC(=O)[C@@H]2CCCN2C(=O)[C@H]([C@@H](C)CC)NC(=O)[C@H]([C@@H](C)O)NC(=O)[C@H](CC(=O)O)NC1=O | 0.375 | – | 0.419
